Measured values from ChEMBL document CHEMBL3046556, “Microwave-assisted synthesis and antimicrobial screening of new imidazole derivatives bearing 4-thiazolidinone nucleus” (2013).
Converted amounts (≈) assume the structure as drawn. The source made the active and inactive calls. The rule behind the calls is not given here.

What was measured:
Escherichia coli [1] = test: Antibacterial activity against Escherichia coli MTCC 443 assessed as growth inhibition after 24 hr by NCCLS broth dilution method; format: functional; details: MTCC 443, 24 h
Pseudomonas aeruginosa [2] = test: Antibacterial activity against Pseudomonas aeruginosa MTCC 1688 assessed as growth inhibition after 24 hr by NCCLS broth dilution method; format: functional; details: MTCC 1688, 24 h
Staphylococcus aureus [3] = test: Antibacterial activity against Staphylococcus aureus MTCC 96 assessed as growth inhibition after 24 hr by NCCLS broth dilution method; format: functional; details: MTCC 96, 24 h
Streptococcus pyogenes [4] = test: Antibacterial activity against Streptococcus pyogenes MTCC 442 assessed as growth inhibition after 24 hr by NCCLS broth dilution method; format: functional; details: MTCC 442, 24 h
Aspergillus clavatus [5] = test: Antifungal activity against Aspergillus clavatus MTCC 1323 assessed as growth inhibition after 48 hr by broth dilution method; format: functional; details: MTCC 1323, 48 h
Candida albicans [6] = test: Antifungal activity against Candida albicans MTCC 227 assessed as growth inhibition after 48 hr by broth dilution method; format: functional; details: MTCC 227, 48 h
Aspergillus niger [7] = test: Antifungal activity against Aspergillus niger MTCC 282 assessed as growth inhibition after 48 hr by broth dilution method; format: functional; details: MTCC 282, 48 h
Candida albicans [8] = test: Antifungal activity against Candida albicans MTCC 227 assessed as growth inhibition at 12.5 to 1000 ug/mL after 48 hr by broth dilution method; format: functional, organism-based
Pseudomonas aeruginosa [9] = test: Antibacterial activity against Pseudomonas aeruginosa MTCC 1688 assessed as growth inhibition at 12.5 to 1000 ug/mL after 24 hr by NCCLS broth dilution method; format: functional, organism-based
Streptococcus pyogenes [10] = test: Antibacterial activity against Streptococcus pyogenes MTCC 442 assessed as growth inhibition at 12.5 to 1000 ug/mL after 24 hr by NCCLS broth dilution method; format: functional, organism-based
Aspergillus clavatus [11] = test: Antifungal activity against Aspergillus clavatus MTCC 1323 assessed as growth inhibition at 12.5 to 1000 ug/mL after 48 hr by broth dilution method; format: functional, organism-based
Aspergillus niger [12] = test: Antifungal activity against Aspergillus niger MTCC 282 assessed as growth inhibition at 12.5 to 1000 ug/mL after 48 hr by broth dilution method; format: functional, organism-based
Escherichia coli [13] = test: Antibacterial activity against Escherichia coli MTCC 443 assessed as growth inhibition at 12.5 to 1000 ug/mL after 24 hr by NCCLS broth dilution method; format: functional, organism-based
Staphylococcus aureus [14] = test: Antibacterial activity against Staphylococcus aureus MTCC 96 assessed as growth inhibition at 12.5 to 1000 ug/mL after 24 hr by NCCLS broth dilution method; format: functional, organism-based

SMILES	MIC (Escherichia coli [1])	MIC (Pseudomonas aeruginosa [2])	MIC (Staphylococcus aureus [3])	MIC (Streptococcus pyogenes [4])	MIC (Aspergillus clavatus [5])	MIC (Candida albicans [6])	MIC (Aspergillus niger [7])	growth inhibition (GI) (Candida albicans [8])	growth inhibition (GI) (Pseudomonas aeruginosa [9])	growth inhibition (GI) (Streptococcus pyogenes [10])	growth inhibition (GI) (Aspergillus clavatus [11])	growth inhibition (GI) (Aspergillus niger [12])	growth inhibition (GI) (Escherichia coli [13])	growth inhibition (GI) (Staphylococcus aureus [14])
CC1(C)S[C@@H]2[C@H](NC(=O)[C@H](N)c3ccccc3)C(=O)N2[C@H]1C(=O)O [AMPICILLIN]	250 µg/mL (≈ 715 µM)	100 µg/mL (≈ 286 µM)	100 µg/mL (≈ 286 µM)	100 µg/mL (≈ 286 µM)										
CC1=N/C(=C\c2ccccc2)C(=O)N1c1ccc(/C(C)=N/N=C2/NC(=O)CS2)cc1	1000 µg/mL (≈ 2400 µM)	500 µg/mL (≈ 1200 µM)	250 µg/mL (≈ 599 µM)	1000 µg/mL (≈ 2400 µM)	500 µg/mL (≈ 1200 µM)	1000 µg/mL (≈ 2400 µM)	500 µg/mL (≈ 1200 µM)							
CC1=N/C(=C\c2ccc(O)cc2)C(=O)N1c1ccc(/C(C)=N/N=C2/NC(=O)CS2)cc1	50 µg/mL (≈ 115 µM)	100 µg/mL (≈ 231 µM)	50 µg/mL (≈ 115 µM)	50 µg/mL (≈ 115 µM)	100 µg/mL (≈ 231 µM)	50 µg/mL (≈ 115 µM)	50 µg/mL (≈ 115 µM)							
COc1ccc(/C=C2/N=C(C)N(c3ccc(C(C)=O)cc3)C2=O)cc1	1000 µg/mL (≈ 2990 µM)		1000 µg/mL (≈ 2990 µM)					inactive	inactive	inactive	inactive	inactive		
CC1=N/C(=C\c2ccc(F)cc2)C(=O)N1c1ccc(/C(C)=N/N=C2/NC(=O)CS2)cc1	250 µg/mL (≈ 574 µM)	250 µg/mL (≈ 574 µM)	100 µg/mL (≈ 230 µM)	500 µg/mL (≈ 1150 µM)	500 µg/mL (≈ 1150 µM)	500 µg/mL (≈ 1150 µM)	500 µg/mL (≈ 1150 µM)							
CC1=N/C(=C\c2ccccc2C)C(=O)N1c1ccc(/C(C)=N/N=C2/NC(=O)CS2)cc1	250 µg/mL (≈ 579 µM)	250 µg/mL (≈ 579 µM)	25 µg/mL (≈ 57.9 µM)	25 µg/mL (≈ 57.9 µM)	250 µg/mL (≈ 579 µM)	500 µg/mL (≈ 1160 µM)	100 µg/mL (≈ 232 µM)							
COc1ccccc1/C=C1\N=C(C)N(c2ccc(/C(C)=N/N=C3/NC(=O)CS3)cc2)C1=O	250 µg/mL (≈ 559 µM)	50 µg/mL (≈ 112 µM)	50 µg/mL (≈ 112 µM)	100 µg/mL (≈ 223 µM)	25 µg/mL (≈ 55.9 µM)	500 µg/mL (≈ 1120 µM)	100 µg/mL (≈ 223 µM)							
CC1=N/C(=C\c2ccccc2Cl)C(=O)N1c1ccc(/C(C)=N/N=C2/NC(=O)CS2)cc1	500 µg/mL (≈ 1110 µM)	100 µg/mL (≈ 221 µM)	500 µg/mL (≈ 1110 µM)	250 µg/mL (≈ 553 µM)	1000 µg/mL (≈ 2210 µM)	1000 µg/mL (≈ 2210 µM)	1000 µg/mL (≈ 2210 µM)							
COC1=CC(=O)C[C@@H](C)[C@]12Oc1c(Cl)c(OC)cc(OC)c1C2=O [GRISEOFULVIN]					100 µg/mL (≈ 283 µM)	500 µg/mL (≈ 1420 µM)	100 µg/mL (≈ 283 µM)							
CC1=N/C(=C\c2ccc(Cl)cc2)C(=O)N1c1ccc(/C(C)=N/N=C2/NC(=O)CS2)cc1	1000 µg/mL (≈ 2210 µM)	250 µg/mL (≈ 553 µM)	250 µg/mL (≈ 553 µM)	100 µg/mL (≈ 221 µM)	250 µg/mL (≈ 553 µM)	500 µg/mL (≈ 1110 µM)	500 µg/mL (≈ 1110 µM)							
CC1=N/C(=C/c2cccc(C)c2)C(=O)N1c1ccc(/C(C)=N/NC(N)=S)cc1	1000 µg/mL (≈ 2550 µM)		500 µg/mL (≈ 1280 µM)					Active	inactive	inactive	Active	Active		
CC1=N/C(=C\c2cccc(C)c2)C(=O)N1c1ccc(/C(C)=N/N=C2/NC(=O)CS2)cc1	500 µg/mL (≈ 1160 µM)	250 µg/mL (≈ 579 µM)	100 µg/mL (≈ 232 µM)	100 µg/mL (≈ 232 µM)	100 µg/mL (≈ 232 µM)	500 µg/mL (≈ 1160 µM)	250 µg/mL (≈ 579 µM)							
CC(=O)c1ccc(N2C(=O)/C(=C\c3ccc(C)cc3)N=C2C)cc1	1000 µg/mL (≈ 3140 µM)		1000 µg/mL (≈ 3140 µM)		250 µg/mL (≈ 785 µM)		250 µg/mL (≈ 785 µM)	inactive	inactive	inactive	inactive			
CC(=O)c1ccc(N2C(=O)/C(=C\c3ccc([N+](=O)[O-])cc3)N=C2C)cc1								inactive	inactive	inactive	inactive	inactive	inactive	inactive
